Data published in patent US20250034167A1, “HETEROCYCLIC COMPOUNDS AND METHODS OF USE” (AMGEN INC., priority 2021, published 2025).

Test system: Phosphorylation of ERK1/2 in AsPC-1 cells
Experiment: Phospho-ERK1/2 MSD Assay
Assay type: cell-based
Details: Homo sapiens, ASPC1, 2 h, read-out: 2 h p-ERK (AsPC-1 cells), IC50, AsPC-1 cells, 2 h compound treatment
Method: Sixteen hours prior to compound treatment, AsPC-1 cells were seeded in 96-well cell culture plates at a density of 25,000 cells/well and incubated at 37° C., 5% CO2. A compound dose-response titration was diluted in growth media, added to appropriate wells of a cell culture plate, and then incubated at 37° C., 5% CO2 for 2 hours.

Row | SMILES | IC50
1 | CCc1c(F)ccc2cc(O)cc(-c3ncc4c(N5C[C@H](O)CC[C@H]5C)nc(OC[C@@]56CCCN5C[C@H](F)C6)nc4c3F)c12 [Example 36, (3R,6R)-1-(7-(8-Ethyl-7-fluoro-3-hydroxynaphthalen-1-yl)-8-fluoro-2-(((2R,7aS)-2-fluorotetrahydro-1H-pyrrolizin-7a(5H)-yl)methoxy)pyrido[4,3-d]pyrimidin-4-yl)-6-methyl-piperidin-3-ol] | 344 nM
2 | C[C@@]1(O)CCCN(c2nc(OC[C@@]34CCCN3C[C@H](F)C4)nc3c(F)c(-c4cc(O)cc5ccc(F)c(F)c45)ncc23)C1 [Example 59, (R)-1-(7-(7,8-Difluoro-3-hydroxynaphthalen-1-yl)-8-fluoro-2-(((2R,7aS)-2-fluorotetrahydro-1H-pyrrolizin-7a(5H)-yl)methoxy)pyrido[4,3-d]pyrimidin-4-yl)-3-methylpiperidin-3-ol] | 33 nM
3 | CCc1c(F)ccc2cc(O)cc(-c3ncc4c(N5CCC[C@@](C)(N)C5)nc(OCC56CCCN5CC(F)C6)nc4c3F)c12 (stereo in doubt) [Example 46, 4-(4-((R)-3-Amino-3-methylpiperidin-1-yl)-8-fluoro-2-(((2R,7aS)-2-fluorotetrahydro-1H-pyrrolizin-7a(5H)-yl)methoxy)pyrido[4,3-d]pyrimidin-7-yl)-5-ethyl-6-fluoronaphthalen-2-ol] | 213 nM
4 | CCc1c(F)ccc2cc(O)cc(-c3ncc4c(N5CCC[C@@H](NC(=O)OC)C5)nc(OC[C@@]56CCCN5C[C@H](F)C6)nc4c3F)c12 [Example 78, Methyl ((R)-1-(7-(8-ethyl-7-fluoro-3-hydroxynaphthalen-1-yl)-8-fluoro-2-(((2R,7aS)-2-fluorotetrahydro-1H-pyrrolizin-7a(5H)-yl)methoxy)pyrido[4,3-d]pyrimidin-4-yl)piperidin-3-yl)carbamate] | 244 nM
5 | CCc1c(F)ccc2cc(O)cc(-c3ncc4c(N5CCC(O)C5)nc(OC[C@@]56CCCN5C[C@H](F)C6)nc4c3F)c12 (stereo partly drawn) [Example 16, 1-(7-(8-Ethyl-7-fluoro-3-hydroxynaphthalen-1-yl)-8-fluoro-2-(((2R,7aS)-2-fluorotetrahydro-1H-pyrrolizin-7a(5H)-yl)methoxy)pyrido[4,3-d]pyrimidin-4-yl)pyrrolidin-3-ol] | 2860 nM

More lines, now with the values ahead:

Row | IC50 | SMILES
6 | 1160 nM | NS(=O)(=O)[C@@H]1CCCN(c2nc(OC[C@@]34CCCN3C[C@H](F)C4)nc3c(F)c(-c4cc(O)cc5ccc(F)c(F)c45)ncc23)C1 [Example 165, (R)-1-(7-(7,8-Difluoro-3-hydroxynaphthalen-1-yl)-8-fluoro-2-(((2R,7aS)-2-fluorotetrahydro-1H-pyrrolizin-7a(5H)-yl)methoxy)pyrido[4,3-d]pyrimidin-4-yl)piperidine-3-sulfonamide]
7 | 5130 nM | CCc1c(F)ccc2cc(O)cc(-c3ncc4c(N5CC(n6ccnc6)C5)nc(OC[C@@]56CCCN5C[C@H](F)C6)nc4c3F)c12 [Example 91, 4-(4-(3-(1H-Imidazol-1-yl)azetidin-1-yl)-8-fluoro-2-(((2R,7aS)-2-fluorotetrahydro-1H-pyrrolizin-7a(5H)-yl)methoxy)pyrido[4,3-d]pyrimidin-7-yl)-5-ethyl-6-fluoronaphthalen-2-ol]
8 | 1240 nM | CCc1c(F)ccc2cc(O)cc(-c3ncc4c(N5CCCC(O)(C6CC6)C5)nc(OC[C@@]56CCCN5C[C@H](F)C6)nc4c3F)c12 (stereo partly drawn) [Example 157, 3-Cyclopropyl-1-(7-(8-ethyl-7-fluoro-3-hydroxy-naphthalen-1-yl)-8-fluoro-2-(((2R,7aS)-2-fluorotetrahydro-1H-pyrrolizin-7a(5H)-yl)methoxy)pyrido[4,3-d]pyrimidin-4-yl)piperidin-3-ol]
9 | 18 nM | CCc1c(F)ccc2cc(O)cc(-c3cc4nc(OC[C@@]56CCCN5C[C@H](F)C6)nc(N5CCC[C@@](C)(O)C5)c4cn3)c12 [Example 170, (R)-1-(7-(8-Ethyl-7-fluoro-3-hydroxynaphthalen-1-yl)-2-(((2R,7aS)-2-fluorotetrahydro-1H-pyrrolizin-7a(5H)-yl)methoxy)pyrido[4,3-d]pyrimidin-4-yl)-3-methyl-piperidin-3-ol]
10 | 172 nM | CCc1c(F)ccc2cc(O)cc(-c3ncc4c(N5CCCC(O)(C(F)(F)F)C5)nc(OC[C@@]56CCCN5C[C@H](F)C6)nc4c3F)c12 (stereo partly drawn) [Example 156, 1-(7-(8-Ethyl-7-fluoro-3-hydroxy-naphthalen-1-yl)-8-fluoro-2-(((2R,7aS)-2-fluorotetrahydro-1H-pyrrolizin-7a(5H)-yl)methoxy)pyrido[4,3-d]pyrimidin-4-yl)-3-(trifluoromethyl) piperidin-3-ol]

Molecular target: His-tagged KRAS G12D protein (Homo sapiens, UniProt P01116, G12D)
Experiment: biochemical
Details: not given

His-tagged KRAS G12D protein, sequence (P01116 1-188 isoform P01116-2 G12D): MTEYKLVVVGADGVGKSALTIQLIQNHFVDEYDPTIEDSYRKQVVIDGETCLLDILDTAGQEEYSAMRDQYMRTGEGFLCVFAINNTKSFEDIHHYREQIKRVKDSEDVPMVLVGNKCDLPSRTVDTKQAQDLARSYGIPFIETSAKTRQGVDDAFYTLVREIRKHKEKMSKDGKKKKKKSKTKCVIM

Row | SMILES | IC50
11 | CCc1c(F)ccc2cc(O)cc(-c3ncc4c(N5CC6CC(O)C(C6)C5)nc(OC[C@@]56CCCN5C[C@H](F)C6)nc4c3F)c12 (single isomer, unassigned) [Example 26] | 4 nM
12 | CCc1c(F)ccc2cc(O)cc(-c3ncc4c(N5CCC[C@H](C(N)=O)C5)nc(OC[C@@]56CCCN5C[C@H](F)C6)nc4c3F)c12 [Example 90, (S)-1-(7-(8-Ethyl-7-fluoro-3-hydroxynaphthalen-1-yl)-8-fluoro-2-(((2R,7aS)-2-fluorotetrahydro-1H-pyrrolizin-7a(5H)-yl)methoxy)pyrido[4,3-d]pyrimidin-4-yl)piperidine-3-carboxamide] | 16 nM
13 | CCc1c(F)ccc2cc(O)cc(-c3ncc4c(N5CC(O)CC(C)(C)C5)nc(OC[C@@]56CCCN5C[C@H](F)C6)nc4c3F)c12 (some centres unmarked) [Example 32] | 9 nM

The next lines start with the values.

Row | IC50 | SMILES
14 | 16 nM | CCc1c(F)ccc2cc(O)cc(-c3ncc4c(N5C[C@H](O)C[C@H](C(F)(F)F)C5)nc(OC[C@@]56CCCN5C[C@H](F)C6)nc4c3F)c12 [Example 154, (3R,5S)-1-(7-(8-Ethyl-7-fluoro-3-hydroxy-naphthalen-1-yl)-8-fluoro-2-(((2R,7aS)-2-fluorotetrahydro-1H-pyrrolizin-7a(5H)-yl)methoxy)pyrido[4,3-d]pyrimidin-4-yl)-5-(trifluoromethyl) piperidin-3-ol]
15 | 11 nM | CCc1c(F)ccc2cc(O)cc(-c3ncc4c(N5CCCC(C#N)C5)nc(OC[C@@]56CCCN5C[C@H](F)C6)nc4c3F)c12 (stereo partly drawn) [Example 151, 1-(7-(8-Ethyl-7-fluoro-3-hydroxy-naphthalen-1-yl)-8-fluoro-2-(((2R,7aS)-2-fluorotetrahydro-1H-pyrrolizin-7a(5H)-yl)methoxy)pyrido[4,3-d]pyrimidin-4-yl)piperidine-3-carbonitrile]
16 | 70 nM | CCc1c(F)ccc2cc(O)cc(-c3ncc4c(N5CCCC(C(C)(C)O)C5)nc(OC[C@@]56CCCN5C[C@H](F)C6)nc4c3F)c12 (stereo partly drawn) [Example 124, 5-Ethyl-6-fluoro-4-(8-fluoro-2-(((2R,7aS)-2-fluorotetrahydro-1H-pyrrolizin-7a(5H)-yl)methoxy)-4-(3-(2-hydroxypropan-2-yl)piperidin-1-yl)pyrido[4,3-d]pyrimidin-7-yl)naphthalen-2-ol]
17 | 8 nM | CCc1c(F)ccc2cc(O)cc(-c3ncc4c(N5CCCC(c6ccn[nH]6)C5)nc(OC[C@@]56CCCN5C[C@H](F)C6)nc4c3F)c12 (stereo partly drawn) [Example 107, 4-(4-(3-(1H-Pyrazol-5-yl)piperidin-1-yl)-8-fluoro-2-(((2R,7aS)-2-fluorotetrahydro-1H-pyrrolizin-7a(5H)-yl)methoxy)pyrido[4,3-d]pyrimidin-7-yl)-5-ethyl-6-fluoronaphthalen-2-ol]
